Experimental data published in patent publication US12637467B2, “Inhibitor of BTK and mutants thereof” (Newave Pharmaceutical Inc., priority 2019, dated 2026).
“Also recorded” adds a separate entry of the source.

Legend:
WT BTK [1] = biological target: T1, WT BTK (Homo sapiens, UniProt Q06187); assay: In vitro dialysis assay (irreversibility assay), WT BTK; format: biochemical; conditions: for Conclusion (WT BTK): reversible or irreversible inhibition after 24 hr dialysis; for Recovery after 24 h dialysis: 0.003 mM compound pre-incubated with 2 nM BTK for 2 hr, dialyzed 24 hr against buffer with 40 mM ATP, BTK activity vs non-dialyzed samples
T1 sequence (Q06187 whole entry): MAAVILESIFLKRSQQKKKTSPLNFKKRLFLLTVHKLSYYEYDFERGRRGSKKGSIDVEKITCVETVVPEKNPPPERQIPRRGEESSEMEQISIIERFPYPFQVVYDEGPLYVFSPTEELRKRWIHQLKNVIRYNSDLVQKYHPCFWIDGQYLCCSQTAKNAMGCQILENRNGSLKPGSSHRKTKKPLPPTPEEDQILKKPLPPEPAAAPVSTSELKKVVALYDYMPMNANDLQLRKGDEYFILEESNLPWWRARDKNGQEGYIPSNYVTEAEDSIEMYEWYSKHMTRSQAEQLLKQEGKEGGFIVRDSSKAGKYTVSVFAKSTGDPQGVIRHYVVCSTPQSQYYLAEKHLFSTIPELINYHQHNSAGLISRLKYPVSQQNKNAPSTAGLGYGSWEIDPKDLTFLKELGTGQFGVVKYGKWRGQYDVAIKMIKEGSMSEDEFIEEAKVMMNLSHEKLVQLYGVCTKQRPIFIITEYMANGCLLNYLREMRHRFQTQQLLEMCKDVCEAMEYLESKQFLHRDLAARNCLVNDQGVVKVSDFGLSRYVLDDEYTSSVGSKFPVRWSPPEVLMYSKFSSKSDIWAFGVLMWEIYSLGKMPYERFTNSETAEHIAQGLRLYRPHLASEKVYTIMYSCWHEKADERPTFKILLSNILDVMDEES
Protocol: (§1) The compound-enzyme complex was dialyzed against the same buffer supplemented with 40 mM ATP for 24 hr. Cumulative dialysis factor >160,000×. After dialysis, the BTK activity was measured in the presence 40 mM ATP and 1 mM substrate peptide and compared to that in non-dialyzed samples. Assay buffer: 100 mM HEPES, pH7.5; 0.1% BSA, 0.01% Triton-X 100; 5 mM MgCl2; 1 mM DTT.

C481S BTK [2] = biological target: T2, C481S BTK (Homo sapiens, UniProt Q06187, C481S); assay: Reversibility of binding to C481S BTK enzyme; format: biochemical; conditions: cysteine not available for covalent binding
T2 sequence (Q06187 whole entry C481S): as the sequence (Q06187 whole entry) above, with C481S counted along it
Protocol: as §1

REC-1 xenograft = REC-1 xenograft model; format: in vivo, mice; conditions: for Tumor volume: BIDX28
From the text: Typically, athymic nude mice (CD-1 nu/nu) or SCID mice are obtained at age 6-8 weeks from vendors and acclimated for a minimum 7-day period. The cancer cells are then implanted into the nude mice. Depending on the specific tumor type, tumors are typically detectable about two weeks following implantation. When tumor sizes reach ˜100-200 mm^3, the animals with appreciable tumor size and shape are randomly assigned into groups of 8 mice each, including one vehicle control group and treatment groups. Dosing varies depending on the purpose and length of each study, which typically proceeds for about 3-4 weeks. Tumor sizes and body weight are typically measured three times per week. In addition to the determination of tumor size changes, the last tumor measurement is used to generate the tumor size change ratio (T/C value), a standard metric developed by the National Cancer Institute for xenograft tumor evaluation. In most cases, % T/C values are calculated using the following formula: % T/C=100×ΔT/ΔC if ΔT>0. When tumor regression occurred (ΔT<0), however, the following formula is used: % T/T0=100×ΔT/T0. Values of <42% are considered significant.

[3] = formulations containing GDC-0853, Phase I clinical trials; cited from earlier work
[4] = rats, treatment for longer than 7 days; cited from earlier work
WT BTK [5] = biological target: T1, WT BTK; assay: Caliper-based kinase assay, WT BTK; format: biochemical; conditions: 0.5 nM enzyme, 16 μM ATP, 3 h at room temperature; read-out: WT BTK IC50 (nM) (irreversible inhibition)
Protocol: (§2) The reaction was then terminated with EDTA, final concentration 20 mM and the phosphorylated reaction product was quantified on a Caliper Desktop Profiler (Caliper LabChip 3000).

C481S BTK [6] = biological target: T2, C481S BTK; assay: Caliper-based kinase assay, C481S BTK; format: biochemical; conditions: 0.5 nM enzyme, 16 μM ATP, 3 h at room temperature; read-out: C481S BTK IC50 (nM) (reversible inhibition)
Protocol: as §2

[7] = 10 mg/kg po, day 26 of the study
[8] = 50 mg/kg po, day 28 of the study

## C=CC(=O)Nc1cc(Nc2nc(-c3ccnc(N4CCn5c(cc6c5CC(C)(C)C6)C4=O)c3CO)cn(C)c2=O)ccc1N1CCN(C)CC1 [Example 2, N-(5-((6-(2-(7,7-dimethyl-1-oxo-1,3,4,6,7,8-hexahydro-2H-cyclopenta[4,5]pyrrolo[1,2-a]pyrazin-2-yl)-3-(hydroxymethyl)pyridin-4-yl)-4-methyl-3-oxo-3,4-dihydropyrazin-2-yl)amino)-2-(4-methylpiperazin-1-yl)phenyl)acrylamide]
WT BTK [1]
  Conclusion (WT BTK): irreversible inhibitors; also recorded: Irreversible/covalent inhibition
C481S BTK [2]
  Mode of binding to C481S BTK: reversibly bind

## C=CC(=O)Nc1cc(Nc2nc(-c3ccnc(N4CCn5c(cc6c5CC(C)(C)C6)C4=O)c3CO)cn(C)c2=O)ccc1N1CCN(C2CCOCC2)C[C@@H]1C [Example 22, N-(5-[[6-(2-[4,4-dimethyl-9-oxo-1,10-diazatricyclo[6.4.0.0^[2,6]]dodeca-2(6),7-dien-10-yl]-3-(hydroxymethyl)pyridin-4-yl)-4-methyl-3-oxopyrazin-2-yl]amino]-2-[(2S)-2-methyl-4-(oxan-4-yl)piperazin-1-yl]phenyl)prop-2-enamide]
WT BTK [1]
  Recovery after 24 h dialysis: ~1%
  Conclusion (WT BTK): Irreversible/covalent inhibition
REC-1 xenograft; [7]
  Tumor volume: 450 mm^3
REC-1 xenograft; 12.5 mg/kg po, day 28 of the study
  Tumor volume: 201 mm^3
REC-1 xenograft; 25 mg/kg po, day 28 of the study
  Tumor volume: 58 mm^3
REC-1 xenograft; [8]
  Tumor volume: 56 mm^3
REC-1 xenograft; REC-1 xenograft, 10 mg/kg, day 26 of the study
  efficacy compared with Acalabrutinib: better efficacy than Acalabrutinib
REC-1 xenograft; REC-1 xenograft, 12.5-50 mg/kg, day 28 of the study
  reduction of tumor growth: dose-dependent reduction of tumor growth

## C[C@H]1CN(C2COC2)CCN1c1ccc(Nc2cc(-c3ccnc(N4CCn5c(cc6c5CC(C)(C)C6)C4=O)c3CO)cn(C)c2=O)nc1 [GDC-0853, reference compound]
[3]
  tolerability: well-tolerated
WT BTK [1]
  Conclusion (WT BTK): reversible WT BTK inhibitor
[4]
  pancreatic toxicity: leads to pancreatic toxicity

## C=CC(=O)Nc1cc(Nc2nc(-c3ccnc(N4CCc5ccncc5C4=O)c3CO)cn(C)c2=O)ccc1N1CCN(C2COC2)C[C@@H]1C [Example 32, N-[5-([6-[3-(hydroxymethyl)-2-(1-oxo-3,4-dihydro-2,7-naphthyridin-2-yl)pyridin-4-yl]-4-methyl-3-oxopyrazin-2-yl]amino)-2-[(2S)-2-methyl-4-(oxetan-3-yl)piperazin-1-yl]phenyl]prop-2-enamide]
WT BTK [5]
  IC50: > 100 nM

## C=CC(=O)Nc1cc(Nc2nc(-c3ccnc(N4CCc5ncccc5C4=O)c3CO)cn(C)c2=O)ccc1N1CCN(C2COC2)C[C@@H]1C [Example 31, N-[5-([6-[3-(hydroxymethyl)-2-(5-oxo-7,8-dihydro-1,6-naphthyridin-6-yl)pyridin-4-yl]-4-methyl-3-oxopyrazin-2-yl]amino)-2-[(2S)-2-methyl-4-(oxetan-3-yl)piperazin-1-yl]phenyl]prop-2-enamide]
WT BTK [5]
  IC50: > 100 nM

## C=CC(=O)Nc1cc(Nc2nc(-c3ccnc(N4CCc5c(sc6c5CC(C)(C)C6)C4=O)c3CO)cn(C)c2=O)ccc1N1CCN(C2COC2)C[C@@H]1C [Example 34, N-(5-[[6-(2-[4,4-dimethyl-9-oxo-7-thia-10-azatricyclo[6.4.0.0^[2,6]]dodeca-1(8),2(6)-dien-10-yl]-3-(hydroxymethyl)pyridin-4-yl)-4-methyl-3-oxopyrazin-2-yl]amino]-2-[(2S)-2-methyl-4-(oxetan-3-yl)piperazin-1-yl]phenyl)prop-2-enamide]
WT BTK [1]
  Recovery after 24 h dialysis: ~1%
  Conclusion (WT BTK): Irreversible/covalent inhibition
WT BTK [5]
  IC50: 0.073 nM
C481S BTK [6]
  IC50: 0.46 nM

## C=CC(=O)Nc1cc(Nc2nc(-c3ccnc(N4CCc5cccnc5C4=O)c3CO)cn(C)c2=O)ccc1N1CCN(C2COC2)C[C@@H]1C [Example 33, N-[5-([6-[3-(hydroxymethyl)-2-(8-oxo-5,6-dihydro-1,7-naphthyridin-7-yl)pyridin-4-yl]-4-methyl-3-oxopyrazin-2-yl]amino)-2-[(2S)-2-methyl-4-(oxetan-3-yl)piperazin-1-yl]phenyl]prop-2-enamide]
WT BTK [5]
  IC50: > 100 nM

## C=CC(=O)Nc1cc(Nc2nc(-c3ccnc(N4CCCn5c(cc6c5CC(C)(C)C6)C4=O)c3CO)cn(C)c2=O)ccc1N1CCN(C2COC2)C[C@@H]1C [Example 29, N-(5-[[6-(2-[4,4-dimethyl-9-oxo-1,10-diazatricyclo[6.5.0.0^[2,6]]trideca-2(6),7-dien-10-yl]-3-(hydroxymethyl)pyridin-4-yl)-4-methyl-3-oxopyrazin-2-yl]amino]-2-[(2S)-2-methyl-4-(oxetan-3-yl)piperazin-1-yl]phenyl)prop-2-enamide]
WT BTK [1]
  Recovery after 24 h dialysis: ~1%
  Conclusion (WT BTK): Irreversible/covalent inhibition

## C=CC(=O)Nc1cc(Nc2nc(-c3ccnc(N4CCn5c(cc6c5CC(C)(C)C6)C4=O)c3CO)cn(C)c2=O)ccc1N1CCN(C2CCOC2)C[C@@H]1C (stereo partly drawn) [Example 39, N-(5-[[6-(2-[4,4-dimethyl-9-oxo-1,10-diazatricyclo[6.4.0.0^[2,6]]dodeca-2(6),7-dien-10-yl]-3-(hydroxymethyl)pyridin-4-yl)-4-methyl-3-oxopyrazin-2-yl]amino]-2-[(2S)-2-methyl-4-(oxolan-3-yl)piperazin-1-yl]phenyl)prop-2-enamide]
WT BTK [1]
  Recovery after 24 h dialysis: ~1%
  Conclusion (WT BTK): Irreversible/covalent inhibition

## C=CC(=O)Nc1cc(Nc2nc(-c3ccnc(N4CCc5c(sc6c5CCC6(C)C)C4=O)c3CO)cn(C)c2=O)ccc1N1CCN(C2COC2)C[C@@H]1C [Example 35, N-(5-[[6-(2-[5,5-dimethyl-9-oxo-7-thia-10-azatricyclo[6.4.0.0^[2,6]]dodeca-1(8),2(6)-dien-10-yl]-3-(hydroxymethyl)pyridin-4-yl)-4-methyl-3-oxopyrazin-2-yl]amino]-2-[(2S)-2-methyl-4-(oxetan-3-yl)piperazin-1-yl]phenyl)prop-2-enamide]
WT BTK [1]
  Recovery after 24 h dialysis: ~1%
  Conclusion (WT BTK): Irreversible/covalent inhibition

## CC#CC(=O)N1CCC[C@H]1c1nc(-c2ccc(C(=O)Nc3ccccn3)cc2)c2c(N)nccn12 [ACP-196, Acalabrutinib, reference compound]
REC-1 xenograft; [7]
  Tumor volume: 672 mm^3
REC-1 xenograft; [8]
  Tumor volume: 108 mm^3

## C=CC(=O)Nc1cc(Nc2nc(-c3ccnc(N4CCn5c(cc6c5CC(C)(C)C6)C4=O)c3C(F)(F)F)cn(C)c2=O)ccc1N1CCN(C2COC2)C[C@@H]1C [Example 28, (S)—N-(5-((6-(2-(7,7-dimethyl-1-oxo-1,3,4,6,7,8-hexahydro-2H-cyclopenta[4,5]pyrrolo[1,2-a]pyrazin-2-yl)-3-(trifluoromethyl)pyridin-4-yl)-4-methyl-3-oxo-3,4-dihydropyrazin-2-yl)amino)-2-(2-methyl-4-(oxetan-3-yl)piperazin-1-yl)phenyl)acrylamide]
WT BTK [5]
  IC50: > 100 nM
C481S BTK [6]
  IC50: > 1000 nM
